Laboratory results as given in paper PMC7251074, “Identification of Anti-tuberculosis Compounds From Aurone Analogs” (Frontiers in Microbiology, 2020).
In brackets after ≈: the same amount, converted by molar mass. Like-named read-outs stand apart in the source and are kept apart here.

Columns and labels:
[1] = target: Mtb chorismate synthase (Mtb-Cs, Rv2540c) (Mycobacterium tuberculosis, UniProt P9WPY1); test: Mtb chorismate synthase activity assay (coupled, Pi production with MESG/PNP); format: biochemical; conditions: Pi production at A360, EPSP, FMN 0.04 mM, NADH 0.3 mM
Chain of Mtb chorismate synthase (Mtb-Cs, Rv2540c) (P9WPY1 whole entry): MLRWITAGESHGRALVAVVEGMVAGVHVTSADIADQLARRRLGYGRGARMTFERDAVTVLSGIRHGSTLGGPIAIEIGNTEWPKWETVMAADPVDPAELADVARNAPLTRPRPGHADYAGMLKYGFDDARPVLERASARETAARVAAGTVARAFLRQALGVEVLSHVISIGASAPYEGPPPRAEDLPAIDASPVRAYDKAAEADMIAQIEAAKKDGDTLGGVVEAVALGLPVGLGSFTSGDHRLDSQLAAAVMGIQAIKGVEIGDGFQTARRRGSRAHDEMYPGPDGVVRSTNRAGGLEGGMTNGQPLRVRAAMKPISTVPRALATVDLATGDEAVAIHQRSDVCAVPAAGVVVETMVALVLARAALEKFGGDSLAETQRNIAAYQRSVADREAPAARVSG

[2] = system: purine nucleoside phosphorylase (PNP); test: Purine nucleoside phosphorylase counter-assay; format: biochemical; conditions: PNP 0.2 U, MESG 50 μM, potassium phosphate 10 mM
Description: FIGURE 4 AA2A and 9504 inhibit Mtb-Cs activity. (A) Assay to measure the ability of aurones to inhibit Cs of Mtb. (B) SDS-PAGE analysis of extracted rRv3227 (left) and rRv2540c (right). Lane 1: marker (PageRuler^M Unstained); 2: crude protein extracts; 3–5: samples eluted from Ni-column by 125, 250, and 500 mM imidazole, respectively; 6: the concentrated proteins eluted by 500 mM imidazole. (C) Evaluation of 9501, 9504, 9505, and 9510 inhibitory effects on Mtb-Cs activity. (D) Evaluation of AA2A and AA8 inhibitory effects on Mtb-Cs activity. Data are means of three independent experiments ± S.D. The reaction mixture comprised Mtb-Cs, various concentrations of aurone leads, EPSP ([…]), FMN (0.04 mM) and NADH (0.3 mM). The production of chorismate from the enzymatic reaction was determined by measuring Pi production using MESG (0.2 mM) and PNP (1 U). […] The reaction mixture comprised PNP (0.2 U), MESG (50 μM), potassium phosphate (10 mM), and aurones (50 μM for 9501, 9504, 9505, and 9510; 200 μM for AA2A and AA8). No significant differences (P > 0.05) were identified between each of the aurone-treated group and the positive control group. Data are means of three independent experiments ± S.D.

[3] = system: tdTomato-expressing Mtb in the lungs of BALB/c mice; format: in vivo, Mycobacterium tuberculosis; conditions: after a 12-days treatment
[4] = system: intracellular Mtb in THP-1 cell derived macrophages; test: Efficacy against intracellular Mtb in THP-1 derived macrophages; format: cell-based, Mycobacterium tuberculosis; conditions: for Mtb CFU compared to the initial intracellular Mtb load (0 h) / CFUs of intracellular Mtb at 48 h compared to before treatment (0 h): 48 h; for CFUs of intracellular Mtb at 48 h compared to before treatment (0 h): 25 and 50 μM
Description: Human monocyte THP-1 cells were seeded at 5 × 10^4 cells / well in 96-well tissue culture black plates with clear bottoms. PMA was used to induce the monocytes to develop into macrophages for 3 days before infection. The tdTomato-expressing Mtb strain was employed for cell infection at an MOI = 20. After a 3 h incubation of the Mtb strain with THP-1 cells, extracellular bacteria were removed by washing twice with the cell culture medium. 200 μL of cell culture medium containing either 25 or 50 μM aurones or 1X MICs of amikacin (AMI, 1 μg/mL), ethambutol (ETH, 0.5 μg/mL), RIF (0.4 μg/mL) and isoniazid (INH) (0.5 μg/mL) was added to each well in triplicate and incubated for 48 h. Infected cells treated with the vehicle buffer served as negative controls. Cells were then lysed and plated for CFU counting.
FIGURE 2 Aurones inhibit intracellular Mtb. (A) Growth ratios of samples treated with the aurone leads or control drugs compared to the growth ratio of untreated control. Growth ratio of each sample = FI of each sample at 48 h / FI of the same sample at 0 h. (B) CFUs of samples treated with the aurone leads or control drugs compared to the CFU of untreated control at 0 and 48 h. 25 and 50 μM of the aurone leads were incubated with the infected cells (MOI = 20) after removing extracellular bacteria. Positive controls: AMI (1 μg/mL), ETH (0.5 μg/mL), INH (0.5 μg/mL), and RIF (0.4 μg/mL). Data are means of three independent experiments ± S.D. *P < 0.05, **P < 0.01, ****P < 0.0001.

HepG2 cells = test: MTT cell viability cytotoxicity assay, HepG2; format: cell-based, human; conditions: for IC50: Homo sapiens, HepG2, 48 h, read-out: IC50 HepG2; for SI (IC50/MIC) HepG2: IC50 HepG2 / MIC Mtb, 2880 min; for selectivity index: on all three cell lines (HepG2, Vero, THP-1)
Description: Cytotoxicities of the aurones were evaluated in Vero cells (ATCC), HepG2 (ATCC), and THP-1 cells (ATCC) using the standard microculture tetrazolium (MTT) cell viability assay. Media used for the Vero cells was DMEM supplemented with 10% calf serum; for HepG2 cells the media used was DMEM supplemented with 20% calf serum; and for THP-1 cells the media used was RPMI-1640 supplemented with 10% calf serum (HyClone Cosmic Calf, GE Lifesciences). Cells were seeded into a 96-well plate. For THP-1 cells, phorbol-12-myristate-13-acetate (PMA) was used to induce the monocytes to develop into macrophages for 3 days before the cytotoxicity assay. A series of two-fold dilutions of aurones or RIF were added into the cell culture media in microplates to determine the concentration that eliminated 50% of eukaryotic cell growth in a 2-days incubation. Cells without drug treatment were incubated with the vehicle buffer and served as negative controls (100% viable). Cells treated with digitonin (100 μg/mL) served as the positive controls. After a 2-days incubation, 10 μL of MTT reagent was loaded into each well, and incubated for 3 h at 37°C. Hundred microliter of detergent solution was then added into each well and the 96-well plates were incubated for 2 h. Absorbance of each sample in the 96-well plates was measured at […]. Viability of each drug-treated sample was calculated as the absorbance of the sample divided by the absorbance of the untreated sample multiplied by 100.
We determined MICs of the top six aurone leads (AA2A, AA8, 9501, 9504, 9505, and 9510) using the standard resazurin microtiter assay (REMA) ([Palomino et al., 2002]). The MIC was defined as the lowest drug concentration that prevented the color change of resazurin from blue to pink. The MICs for 9504, 9505, 9501, 9510, AA2A, and AA8 were 6.25, 12.5, 25, 25, 25, and 50 μM, respectively (Table 2). We evaluated the cytotoxic effects of aurones to human liver cells HepG2, primate kidney Vero cells and human monocyte THP-1 cells after a 2-days incubation using the microculture tetrazolium (MTT) cell viability assay. Concentration gradients of the selected aurones or RIF (as a control) were incubated with the three cell lines. We calculated half maximal inhibitory concentration (IC50) of aurones on these three cell lines. By comparing MICs with IC50, we calculated the selectivity index (SI) for each aurone lead as […].

[5] = system: tdTomato-expressing Mtb CDC1551 strain; test: microbe, parasite or virus in culture; format: cell-based, Mycobacterium tuberculosis; conditions: Mycobacterium tuberculosis, 72 h, aurones at 100 μM, 3 days co-incubation, tdTomato fluorescence intensity; read-out: Inhibitory rate
Mtb CDC1551 = test: Resazurin microtiter assay (REMA) for MICs; format: cell-based; conditions: Mycobacterium tuberculosis, CDC1551, 168 h
Vero cells = test: MTT cell viability cytotoxicity assay, Vero; format: cell-based, primate; conditions: for SI (IC50/MIC) Vero: IC50 Vero / MIC Mtb, 2880 min; for IC50: Primates, Vero, 48 h, read-out: IC50 Vero
THP-1 cells = test: MTT cell viability cytotoxicity assay, THP-1 derived macrophages; format: cell-based, human; conditions: for IC50: Homo sapiens, THP-1, 48 h, read-out: IC50 THP-1; for SI (IC50/MIC) THP-1: IC50 THP-1 / MIC Mtb, 2880 min
Mtb = system: Mtb; set-up: method as in Jayaram et al., 2003; conditions: 10 mg/kg, 12 daily oral doses; ref Jayaram et al., 2003; cited from earlier work
[6] = REMA, 7 days incubation, lowest concentration preventing resazurin colour change, read-out: MIC
[7] = MTT, 2-days incubation, PMA-induced macrophages

| Compound | IC50 [1] | inhibition of PNP ([2]; aurone 200 μM) | Mtb load in the lungs of infected mice [3] | Mtb CFU compared to the initial intracellular Mtb load (0 h) ([4]; 50 μM) | CFUs of intracellular Mtb at 48 h compared to before treatment (0 h) [4] | IC50 (HepG2 cells; MTT, 2-days incubation) | SI (IC50/MIC) HepG2 (HepG2 cells) | inhibition at 100 µM [5] | MIC (Mtb CDC1551; [6]) | SI (IC50/MIC) Vero (Vero cells) | IC50 (Vero cells; MTT, 2-days incubation) | IC50 (THP-1 cells; [7]) | SI (IC50/MIC) THP-1 (THP-1 cells) | inhibition of PNP ([2]; aurone 50 μM) | selectivity index (HepG2 cells) | also measured |
| --- | --- | --- | --- | --- | --- | --- | --- | --- | --- | --- | --- | --- | --- | --- | --- | --- |
| CC(=O)N1C(=Cc2ccccc2Br)C(=O)c2ccccc21 [AA2A] | 24.1 ± 0.55 µM | do not inhibit | significantly reduced | reduced Mtb CFU significantly | did not increase | 118 µM | 4.71 | 85.95 ± 0.38% | 25 µM (≈ 8.55 µg/mL) | 5.13 | 128 µM | 110 µM | 4.39 |  |  |  |
| O=C1C(=Cc2ccccc2)Nc2ccccc21 [AA8] | 50.3 ± 8.61 µM | do not inhibit | significantly reduced |  | did not increase | 399 µM | 7.99 | 71.9 ± 2% | 50 µM (≈ 11.1 µg/mL) | 5.58 | 279 µM | 504 µM | 10.08 |  |  |  |
| CN(C)c1ccc(C=C2Oc3cc(Br)ccc3C2=O)cc1 [Aurone 9504] | 17.1 ± 1.07 µM |  | significantly reduced | reduced Mtb CFU significantly | did not increase |  | 126.40 | 88.29 ± 0.16% |  | 87.98 |  |  | 100.50 | do not inhibit | > 10 | IC50 (HepG2 cells): 790 µM; MIC (Mtb CDC1551): 6.25 µM (≈ 2.15 µg/mL); IC50 (Vero cells): 550 µM; IC50 (THP-1 cells): 628 µM |
| CN(C)c1ccc(C=C2Oc3c(Br)cccc3C2=O)cc1 [Aurone 9505] | 24.5 ± 9.44 µM |  |  | reduced Mtb CFU significantly | did not increase | 29.3 µM | 2.34 | 84.4 ± 2.99% | 12.5 µM (≈ 4.3 µg/mL) | 38.34 | 479 µM | 219 µM | 17.56 | do not inhibit |  | Mtb CFU compared to the initial intracellular Mtb load (0 h) ([4]; 25 μM): reduced Mtb CFU significantly |
| Cc1cc2c(cc1C)C(=O)C(=Cc1ccc(N(C)C)cc1)O2 [Aurone 9510] | 15.1 ± 1.68 µM |  |  |  |  | 451 µM | 18.06 | 83.1 ± 1.62% | 25 µM (≈ 7.33 µg/mL) | 35.69 | 892 µM | 693 µM | 27.71 | do not inhibit | > 10 | intracellular Mtb replication ([4]; 25 μM, at 48 h): did not fully inhibit |
| CO[C@H]1/C=C/O[C@@]2(C)Oc3c(C)c(O)c4c(O)c(c(/C=N/N5CCN(C)CC5)c(O)c4c3C2=O)NC(=O)/C(C)=C\C=C\[C@H](C)[C@H](O)[C@@H](C)[C@@H](O)[C@@H](C)[C@H](OC(C)=O)[C@@H]1C [RIF, rifampicin, reference compound] |  |  |  |  |  | 4.56 µM |  |  | 0.5 µM (≈ 0.411 µg/mL) |  | 22.8 µM | 15 µM |  |  |  | CFU reduction in bacterial burden in the lungs (Mtb): ~1 log10 CFU |
